These results are taken from PubChem BioAssay (NCI).

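Tested at 5 concentrations; 48 h exposure; 96-well plates; endpoints linearly interpolated, else capped at highest concentration. Here, GI50 denotes the concentration required for 50% inhibition of growth. TGI: concentration producing complete growth inhibition.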

What all share (assay): NCI anticancer screen, dose series, 48 h
Assay [1] concerns ACHN renal.
Assay [2] has as its system HL-60(TB) leukemia.
Assay [3] relates to IGROV1 ovarian.
In assay [4] the test system is MDA-MB-435.
Assay [5] relates to NCI-H23 lung.
Assay [6] has as its system PC-3 prostate.
In assay [7] the test system is RPMI-8226 leukemia.
Assay [8] relates to SK-MEL-2 melanoma.
For assay [9], the system named is SN12C renal.
The test system of assay [10] is SR leukemia.

Regarding `CC#C[C@]1(O)CC[C@H]2[C@@H]3CCC4=CC(=O)CCC4=C3[C@@H](c3ccc4c(c3)OCO4)C[C@@]21C`, the GI50 in assay [1] was 47.4 µM; in assay [2], 47.5 µM; in assay [3] it was 59.9 µM; in assay [4], 106 µM; in assay [5], 152 µM; in [6], 39.7 µM. In addition, the GI50 in assay [7] was 49.4 µM; in assay [8], 111 µM; in assay [9], 83.2 µM; in [10] it was 77.2 µM. In addition, the TGI in assay [1] was 633 µM; in assay [2], 399 µM; in [3], 589 µM; in [4], 390 µM; in assay [5], greater than 1000 µM; in [6], 340 µM. For the same compound, the TGI is 331 µM in [7], 291 µM in assay [8], 464 µM in assay [9] and 479 µM in assay [10].
As to `C=CCOc1cccc(/C=C2\SC(=Nc3ccc(O)cc3)NC2=O)c1`, the GI50 was 0.777 µM in [1]; 0.241 µM in [2]; 0.543 µM in assay [3]; 0.155 µM in assay [4]; 1.01 µM in [5]; 0.537 µM in [6]. In addition, the GI50 in [7] was 0.372 µM; in assay [8], 2.91 µM; in [9] it was 0.953 µM; in assay [10], 0.108 µM. Further, the TGI in assay [1] is 13.7 µM; in [2], 0.749 µM; in [3] it was 22.8 µM; in [4], 0.315 µM; in [5], 31.4 µM; in [6], greater than 48.4 µM. Further, the TGI is 3.1 µM in assay [7], 18.5 µM in assay [8], 10.1 µM in assay [9] and greater than 63.7 µM in [10].
Turning to `Cc1cc(N(CCCl)CCCl)ccc1C=Nc1ccc(-c2csc(Cc3ccccc3)n2)cc1`, the GI50 in [1] was 5.35 µM; in assay [2], 1.85 µM; in [3], 24.2 µM; in assay [4], 12.4 µM; in [5] it was 8.96 µM; in assay [6], 5.66 µM. Moreover, the GI50 in [7] is 8.26 µM; in assay [8], 18.8 µM; in assay [9], 3.85 µM; in assay [10], 1.07 µM. For the same compound, the TGI in [1] was greater than 91.3 µM; in assay [2] it was greater than 46 µM; in assay [3], greater than 100 µM; in [4] it was 39.9 µM; in assay [5], 44.1 µM; in [6] it was 44.2 µM. In addition, the TGI in assay [7] was found to be 44 µM; in assay [8] it was 40.3 µM; in assay [9] it was 62.8 µM; in assay [10] it was 73.2 µM.
As for `CCCC(=O)OC1C(C(O)CO)OC2OC(C)(C)OC21` (stereo not drawn), the TGI was greater than 100 µM in assay [1]; less than 3.16 µM in [2]; greater than 100 µM in assay [3]; greater than 100 µM in assay [4]; greater than 100 µM in [5]; greater than 100 µM in [6]. In addition, the TGI in [7], in assay [8], in [9] and in assay [10] was greater than 100 µM each time.
Take `Cn1cccc1-c1cc(-c2cccs2)nc(N)c1C#N`: the GI50 in [1], in assay [2], in [3], in [4], in assay [5] and in assay [6] was greater than 100 µM each time. The GI50 in [7] was greater than 100 µM; in assay [8], greater than 100 µM; in [9] it was greater than 100 µM; in assay [10], 5.39 µM. The TGI in assay [1], in assay [2], in [3], in assay [4], in assay [5] and in assay [6] was greater than 100 µM in each case. Besides, the TGI in assay [7] is greater than 100 µM; in [8], greater than 100 µM; in assay [9], greater than 100 µM; in assay [10] it was 68.2 µM.
In the case of `O=C1/C(=C\c2c[nH]c3ccccc23)c2ccccc2N1c1c(Cl)cccc1Cl`, the GI50 in [1] is 2.4 µM; in [2] it was 1.55 µM; in assay [3], 1.19 µM; in [4], 1.77 µM; in assay [5], 1.66 µM; in assay [6], 1.35 µM. Moreover, the GI50 in assay [7] is 1.89 µM; in [8], 1.94 µM; in assay [9], 1.53 µM; in assay [10], 2.33 µM. Moreover, the TGI in assay [1] stood at 10.1 µM; in [2], 3.82 µM; in assay [3], 3.18 µM; in [4], 3.57 µM; in [5] it was 3.38 µM; in [6] it was 2.96 µM. In addition, the TGI is 4.68 µM in assay [7], 3.65 µM in assay [8], 2.89 µM in assay [9] and 5.16 µM in assay [10].
Take `CC1OC(O[C@@H]2OC=C(C=O)[C@@]3(O)CC[C@H](C)[C@@H]23)C(O)C(O)C1O` (stereo partly drawn): the TGI in [1], in assay [2], in assay [3], in assay [4], in assay [5] and in [6] was greater than 100 µM in each case. Further, the TGI in [7], in assay [8], in assay [9] and in assay [10] was greater than 100 µM throughout.
Take `Cc1ccccc1[P+](Cc1ccccc1)(c1ccccc1)c1ccccc1`: the GI50 was 8.3 µM in [1]; 1.23 µM in assay [2]; 1.8 µM in assay [3]; 0.601 µM in assay [4]; 1.45 µM in assay [6]; 0.603 µM in [7]. The figures for the GI50 in assay [8], in assay [9] and in assay [10] were 2.67 µM, 2.85 µM and 1.6 µM, respectively. Further, the TGI in assay [1] is greater than 100 µM; in assay [2] it was 4.04 µM; in [3], 32.1 µM; in [4] it was 3.71 µM; in assay [6], greater than 100 µM; in assay [7], 6.34 µM. Further, the values for the TGI in [8], in [9] and in assay [10] were 6.65 µM, 90.3 µM and 15.7 µM, respectively.
